Measurements as given in US9273040B2 (Merck Sharp & Dohme Corp., priority 2011, dated 2016).

What was measured:
Assay type in all cases: cell-based
[1] = target: T1, human Nav1.5 channels stably expressed in HEK 293 cells (Homo sapiens, UniProt Q14524); assay: IonWorks Quattro automated patch-clamp, sodium current, inactivated state block; details: selectivity over Nav1.5
T1 construct: expressed in transfected cells

[2] = target: T2, human Nav1.7 channels stably expressed in HEK 293 cells (Homo sapiens, UniProt Q15858); assay: as above; details: read-out: potency for the Nav 1.7 sodium ion channel (as measured by IonWorks)
T2 construct: expressed in transfected cells

[3] = target: T1, human Nav1.5 channels stably expressed in HEK 293 cells; assay: PatchXpress 7000 automated patch-clamp, sodium current; details: selectivity over Nav1.5
Method in brief: (§1)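 IC50 values came from Hill-equation fits of rundown-corrected inhibition. PatchXpress recordings at 22° C held cells 20 mV negative to V0.5 inact and applied 10 Hz trains of 30 ms steps to −20 mV (Nav1.7) or an 8000 ms prepulse 7 mV positive to V0.5 inact. […]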

[4] = target: T2, human Nav1.7 channels stably expressed in HEK 293 cells; assay: as above; details: 22° C., read-out: potency for the Nav 1.7 sodium ion channel (as measured by PatchXpress)
Method in brief: as §1

T1 sequence (Q14524 whole entry): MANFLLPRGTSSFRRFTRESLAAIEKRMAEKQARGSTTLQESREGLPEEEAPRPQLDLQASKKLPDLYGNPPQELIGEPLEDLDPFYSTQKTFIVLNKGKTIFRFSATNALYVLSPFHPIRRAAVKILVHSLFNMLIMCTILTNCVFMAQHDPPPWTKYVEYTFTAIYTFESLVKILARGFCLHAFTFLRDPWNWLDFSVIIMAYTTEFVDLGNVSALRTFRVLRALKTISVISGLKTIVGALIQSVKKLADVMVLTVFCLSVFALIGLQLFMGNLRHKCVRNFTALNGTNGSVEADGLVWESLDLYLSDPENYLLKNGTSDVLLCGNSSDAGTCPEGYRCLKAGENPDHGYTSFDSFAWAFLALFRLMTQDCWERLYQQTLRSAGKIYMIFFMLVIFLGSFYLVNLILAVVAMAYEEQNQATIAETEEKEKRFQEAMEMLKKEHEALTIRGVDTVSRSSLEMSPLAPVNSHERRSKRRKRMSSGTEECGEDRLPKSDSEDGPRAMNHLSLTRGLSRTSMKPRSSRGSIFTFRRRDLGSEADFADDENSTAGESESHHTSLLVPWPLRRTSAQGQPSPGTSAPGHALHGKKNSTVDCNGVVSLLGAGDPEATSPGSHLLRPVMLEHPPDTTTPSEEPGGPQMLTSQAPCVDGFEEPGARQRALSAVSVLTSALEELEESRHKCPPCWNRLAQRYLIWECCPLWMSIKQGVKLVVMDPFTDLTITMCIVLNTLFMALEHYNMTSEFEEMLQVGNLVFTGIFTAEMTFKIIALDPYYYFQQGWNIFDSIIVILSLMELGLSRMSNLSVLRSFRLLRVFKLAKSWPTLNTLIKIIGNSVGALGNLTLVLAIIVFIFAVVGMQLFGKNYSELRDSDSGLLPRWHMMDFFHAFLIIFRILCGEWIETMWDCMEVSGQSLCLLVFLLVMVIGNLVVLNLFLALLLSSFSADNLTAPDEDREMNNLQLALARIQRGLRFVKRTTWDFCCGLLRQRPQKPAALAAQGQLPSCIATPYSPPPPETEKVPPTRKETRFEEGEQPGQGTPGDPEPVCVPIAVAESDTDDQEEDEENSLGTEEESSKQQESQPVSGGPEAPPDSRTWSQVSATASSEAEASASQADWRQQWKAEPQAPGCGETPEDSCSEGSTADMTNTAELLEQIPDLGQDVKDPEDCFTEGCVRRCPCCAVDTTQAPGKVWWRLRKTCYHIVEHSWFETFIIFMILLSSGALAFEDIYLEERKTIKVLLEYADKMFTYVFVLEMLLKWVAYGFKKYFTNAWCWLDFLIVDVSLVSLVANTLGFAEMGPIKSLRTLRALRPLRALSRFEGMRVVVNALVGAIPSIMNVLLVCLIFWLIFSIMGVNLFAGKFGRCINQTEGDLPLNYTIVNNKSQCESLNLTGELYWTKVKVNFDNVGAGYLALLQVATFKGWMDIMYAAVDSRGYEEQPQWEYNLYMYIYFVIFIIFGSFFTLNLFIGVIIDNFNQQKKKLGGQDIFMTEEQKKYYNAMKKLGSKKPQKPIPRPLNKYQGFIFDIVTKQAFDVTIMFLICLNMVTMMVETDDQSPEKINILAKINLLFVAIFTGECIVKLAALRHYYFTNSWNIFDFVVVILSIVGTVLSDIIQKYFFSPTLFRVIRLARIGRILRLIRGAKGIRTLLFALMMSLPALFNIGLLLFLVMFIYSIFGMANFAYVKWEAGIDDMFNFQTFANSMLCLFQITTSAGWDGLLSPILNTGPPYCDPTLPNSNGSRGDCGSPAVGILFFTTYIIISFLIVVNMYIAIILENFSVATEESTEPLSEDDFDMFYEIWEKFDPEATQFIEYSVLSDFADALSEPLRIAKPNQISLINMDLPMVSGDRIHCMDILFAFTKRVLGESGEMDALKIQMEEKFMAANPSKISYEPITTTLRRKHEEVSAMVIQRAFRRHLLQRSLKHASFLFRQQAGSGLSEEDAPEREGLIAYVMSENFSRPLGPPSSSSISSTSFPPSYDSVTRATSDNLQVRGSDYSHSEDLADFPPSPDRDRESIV
T2 sequence (Q15858 whole entry): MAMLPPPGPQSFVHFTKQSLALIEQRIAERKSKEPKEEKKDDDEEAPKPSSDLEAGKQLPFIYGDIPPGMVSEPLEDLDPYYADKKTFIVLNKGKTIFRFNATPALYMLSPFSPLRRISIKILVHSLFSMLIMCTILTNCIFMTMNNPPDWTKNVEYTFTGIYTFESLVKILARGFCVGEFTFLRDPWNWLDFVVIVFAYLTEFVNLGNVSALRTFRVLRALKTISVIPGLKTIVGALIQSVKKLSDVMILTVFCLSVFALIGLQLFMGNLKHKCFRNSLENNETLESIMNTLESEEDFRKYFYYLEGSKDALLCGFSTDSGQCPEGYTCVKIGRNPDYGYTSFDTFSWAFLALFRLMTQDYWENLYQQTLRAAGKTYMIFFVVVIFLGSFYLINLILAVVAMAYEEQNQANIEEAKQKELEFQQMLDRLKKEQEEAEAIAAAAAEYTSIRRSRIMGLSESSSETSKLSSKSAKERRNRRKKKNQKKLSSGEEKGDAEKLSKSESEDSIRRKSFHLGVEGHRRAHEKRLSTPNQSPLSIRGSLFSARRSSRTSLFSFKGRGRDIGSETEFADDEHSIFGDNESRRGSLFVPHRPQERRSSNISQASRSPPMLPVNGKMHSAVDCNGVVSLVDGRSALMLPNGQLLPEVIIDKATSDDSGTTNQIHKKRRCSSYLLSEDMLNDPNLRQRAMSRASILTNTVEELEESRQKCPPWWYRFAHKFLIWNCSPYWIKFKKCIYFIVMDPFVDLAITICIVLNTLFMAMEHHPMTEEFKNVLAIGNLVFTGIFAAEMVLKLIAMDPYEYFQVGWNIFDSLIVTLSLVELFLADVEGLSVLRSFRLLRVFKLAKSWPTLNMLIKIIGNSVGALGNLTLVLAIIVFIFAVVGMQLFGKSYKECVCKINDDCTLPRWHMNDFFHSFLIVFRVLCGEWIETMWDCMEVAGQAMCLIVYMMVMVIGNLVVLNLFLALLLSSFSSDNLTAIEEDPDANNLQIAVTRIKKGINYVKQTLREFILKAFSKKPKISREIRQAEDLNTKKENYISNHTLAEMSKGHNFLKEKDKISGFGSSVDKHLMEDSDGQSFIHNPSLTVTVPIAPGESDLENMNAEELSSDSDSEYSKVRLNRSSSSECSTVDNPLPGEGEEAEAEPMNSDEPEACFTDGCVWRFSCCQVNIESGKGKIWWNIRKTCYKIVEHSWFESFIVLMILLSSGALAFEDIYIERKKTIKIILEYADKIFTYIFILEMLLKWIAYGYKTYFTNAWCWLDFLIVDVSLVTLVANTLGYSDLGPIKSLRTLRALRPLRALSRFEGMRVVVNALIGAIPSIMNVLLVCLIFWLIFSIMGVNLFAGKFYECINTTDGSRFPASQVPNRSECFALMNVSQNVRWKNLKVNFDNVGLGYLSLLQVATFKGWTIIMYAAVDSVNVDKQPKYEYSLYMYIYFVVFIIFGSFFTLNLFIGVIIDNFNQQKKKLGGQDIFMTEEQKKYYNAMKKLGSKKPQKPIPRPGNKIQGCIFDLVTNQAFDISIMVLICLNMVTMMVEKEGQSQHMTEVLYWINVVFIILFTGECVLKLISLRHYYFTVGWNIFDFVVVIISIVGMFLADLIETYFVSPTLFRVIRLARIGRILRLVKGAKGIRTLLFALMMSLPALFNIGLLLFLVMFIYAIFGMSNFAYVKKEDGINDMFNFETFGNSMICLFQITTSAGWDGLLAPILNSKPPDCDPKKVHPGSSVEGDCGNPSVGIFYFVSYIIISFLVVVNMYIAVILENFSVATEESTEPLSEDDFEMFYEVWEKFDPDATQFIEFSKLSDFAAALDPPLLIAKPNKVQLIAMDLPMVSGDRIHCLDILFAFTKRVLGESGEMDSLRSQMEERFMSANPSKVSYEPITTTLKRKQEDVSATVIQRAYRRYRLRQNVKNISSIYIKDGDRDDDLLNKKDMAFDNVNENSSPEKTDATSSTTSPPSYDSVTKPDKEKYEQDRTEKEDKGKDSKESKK

| Compound | ratio of Nav 1.5:Nav 1.7 potency, determined by IonWorks measurement [1] | IC50 [2] [nM] | ratio of Nav 1.5:Nav 1.7 potency, determined by PatchXpress measurement [3] | IC50 [4] [nM] |
| --- | --- | --- | --- | --- |
| NC/C=C/c1ccccc1Cn1c(=O)oc2cc(S(=O)(=O)Nc3ncns3)c(F)cc21 [Compound 12-3, 3-{2-[(1E)-3-Aminoprop-1-en-1-yl]benzyl}-5-fluoro-2-oxo-N-(1,2,4-thiadiazol-5-yl)-2,3-dihydro-1,3-benzoxazole-6-sulfonamide] | 6084 | 5 | 1096 | 27 |
| C[C@H](c1cccc2c1CNCC2)n1c(=O)oc2cc(S(=O)(=O)Nc3ncns3)c(F)cc21 [Compound 13-2, 5-Fluoro-2-oxo-3-[(1R)-1-(1,2,3,4-tetrahydroisoquinolin-8-yl)ethyl]-N-(1,2,4-thiadiazol-5-yl)-2,3-dihydro-1,3-benzoxazole-6-sulfonamide] | 2604 | 4 | 357 | 26 |
| C[C@H](c1ccccc1)n1c(=O)oc2cc(S(=O)(=O)Nc3ncns3)c(F)cc21 [Compound 13-3, 5-fluoro-2-oxo-3-[(1R)-1-phenylethyl]-N-1,2,4-thiadiazol-5-yl-2,3-dihydro-1,3-benzoxazole-6-sulfonamide] | 418 | 21 | 162 | 42 |
| C[C@@H](c1ccccc1)n1c(=O)oc2cc(S(=O)(=O)Nc3ncns3)c(F)cc21 [Compound 13-4, 5-fluoro-2-oxo-3-[(1S)-1-phenylethyl]-N-1,2,4-thiadiazol-5-yl-2,3-dihydro-1,3-benzoxazole-6-sulfonamide] | 78 | 157 | 27 | 167 |
| O=c1oc2cc(S(=O)(=O)Nc3ncns3)c(F)cc2n1C(c1ccccc1)C1CC1 (centres unmarked) [Compound 13-5, 3-[cyclopropyl(phenyl)methyl]-5-fluoro-2-oxo-N-1,2,4-thiadiazol-5-yl-2,3-dihydro-1,3-benzoxazole-6-sulfonamide] | > 300 | 110 | > 30 | 145 |
